Assay results published in patent US20230093476A1, “SUBSTITUTED FUSED IMIDAZOLE DERIVATIVES AND METHODS OF TREATING REFRACTIVE OCULAR DISORDERS” (vTv Therapeutics LLC, priority 2020, published 2023).

Assays:
[1] = test system: mouse lens; assay: Lens elasticity under 2-week repeated topical instillation (TID), coverslip method; format: in vivo, C57BL/6J mice; conditions: for Right Eye Change in Diameter (μm) (Mean ± S.E.): treated right eye; for Right Eye Change in Diameter (μm) (Mean ± S.E.) / efficacy compared with 1.5% solutions comprising LACE: TID; for Right Eye Change in Diameter (μm) (Mean ± S.E.) / efficacy compared with 1.5% solutions comprising LACE / elasticity of the mouse lenses: 2 weeks; for efficacy compared with 1.5% solutions comprising LACE: 0.5% and 1.5% solutions; for elasticity of the mouse lenses: repeated instillation of 0.15%, 0.5%, 1.5% solutions TID
Method: Test compounds (Examples 46 and 134), positive control of Lipoic Acid Choline Ester (LACE), and control treatment were topically administered to right eyes according to methods described in Invest Ophthalmol Vis Sci. 2016; 57:2851-2863. Briefly, eight month old C57BL/6J mice (male) were treated with 2.5 μL of each test sample three times per day (TID) at about 4-hour intervals in the right eyes for 2 weeks. The left eyes were used as untreated controls. Each treatment group included 10 mice, and the vehicle group included 5 mice.
Measurement of lens elasticity was performed according to the methods described in Invest Ophthalmol Vis Sci. 2016; 57:2851-2863. Briefly, after 2-week treatment, mice were euthanized by CO2 overdose. Lenses were removed and analyzed for changes in elasticity. Lenses were placed on slides and photographed. A second photograph was taken after a coverslip was placed on the lens. Equatorial diameters changed by the coverslips placed on the lens were analyzed.

[2] = test system: lens from aged mice; assay: In vitro lens elasticity, coverslip method, cultured lenses from aged mice; format: cell-based, C57BL/6J mice; conditions: for efficacy compared with positive control groups using lipoic acid: 50 μM and 500 μM; for Change in Diameter (μm) (Mean ± S.E.): about 14 hours incubation at 37° C., mouse lens; for lens elasticity relative to control: both concentrations of 50 μM and 500 μM; for dose dependence of elasticity increase: from the lower dose (50 μM) to the higher dose (500 μM)
Method: Test compounds (Examples 46 and 134) at 50 μM and 500 μM, Positive Control of Lipoic Acid at 50 μM and 500 μM, and control treatment were administered to lenses (12 per group) according to methods described in Invest Ophthalmol Vis Sci. 2016; 57:2851-2863. Briefly, seven month old C57BL/6J mice (male) were euthanized by CO2 overdose. Lenses were removed and placed in culture medium. Lenses were incubated for about 2 hours at 37° C. The medium was replaced with fresh medium supplemented with test compounds or with fresh medium. After about 14 hours incubation at 37° C., lenses were removed from culture medium.
Measurement of lens elasticity was performed according to the methods described in Invest Ophthalmol Vis Sci. 2016; 57:2851-2863. Briefly, lenses were placed on slides and photographed. A second photograph was taken after a coverslip was placed on the lens. Equatorial diameters changed by the coverslips placed on the lens were analyzed.

[3] = Table 2, left eye = untreated control eye of mice given 1.5% solution in right eye
[4] = Table 3, left eye = untreated control eye of mice given 1.5% solution in right eye

Row | SMILES | Right Eye Change in Diameter (μm) (Mean ± S.E.) ([1]; Table 2, 1.5% solution) | Left Eye Change in Diameter (μm) (Mean ± S.E.) [1, 3] | Right Eye Change in Diameter (μm) (Mean ± S.E.) ([1]; Table 3, 1.5% solution) | Left Eye Change in Diameter (μm) (Mean ± S.E.) [1, 4] | efficacy compared with positive control groups using lipoic acid [2] | Change in Diameter (μm) (Mean ± S.E.) ([2]; 50 μM) | Change in Diameter (μm) (Mean ± S.E.) ([2]; 500 μM) | lens elasticity relative to control [2] | dose dependence of elasticity increase [2] | efficacy compared with 1.5% solutions comprising LACE [1] | Right Eye Change in Diameter (μm) (Mean ± S.E.) ([1]; Table 3, 0.15% solution) | Right Eye Change in Diameter (μm) (Mean ± S.E.) ([1]; Table 3, 0.5% solution) | Left Eye Change in Diameter (μm) (Mean ± S.E.) ([1]; Table 3, left eye = untreated control eye of mice given 0.15% solution in right eye) | Left Eye Change in Diameter (μm) (Mean ± S.E.) ([1]; Table 3, left eye = untreated control eye of mice given 0.5% solution in right eye) | elasticity of the mouse lenses [1] | Right Eye Change in Diameter (μm) (Mean ± S.E.) ([1]; Table 2, 0.15% solution) | Right Eye Change in Diameter (μm) (Mean ± S.E.) ([1]; Table 2, 0.5% solution) | Left Eye Change in Diameter (μm) (Mean ± S.E.) ([1]; Table 2, left eye = untreated control eye of mice given 0.15% solution in right eye) | Left Eye Change in Diameter (μm) (Mean ± S.E.) ([1]; Table 2, left eye = untreated control eye of mice given 0.5% solution in right eye)
1 | C[N+](C)(C)CCOC(=O)CCCC[C@@H]1CCSS1 [LACE, Lipoic Acid Choline Ester, reference compound] | 64.5 ± 4.5 μm | 41.5 ± 5.2 μm | 60.8 ± 2.9 μm | 30.1 ± 6.0 μm |  |  |  |  |  |  |  |  |  |  |  |  |  |  | 
2 | Cn1c(Nc2nc3ccc(OC(F)(F)F)cc3s2)nc2cc(C(=O)NCCOCCO)ccc21 [Example 46, 1-Methyl-2-(6-trifluoromethoxy-benzothiazol-2-ylamino)-1H-benzoimidazole-5-carboxylic acid [2-(2-hydroxy-ethoxy)-ethyl]-amide] |  |  | 62.7 ± 3.4 μm | 41.3 ± 3.9 μm | almost the same | 67.4 ± 5.6 μm | 80.4 ± 5.3 μm | significantly increased | dose dependent increase | better than or equivalent to | 42.3 ± 4.0 μm | 63.2 ± 5.4 μm | 32.2 ± 4.3 μm | 34.7 ± 4.5 μm | significantly increased |  |  |  | 
3 | CN(C)C(=O)CNC(=O)c1ccc2c(c1)nc(Nc1nc3ccc(C(F)(F)F)cc3s1)n2C [Example 134, 1-Methyl-2-(6-trifluoromethyl-benzothiazol-2-ylamino)-1H-benzimidazole-5-carboxylic acid dimethylcarbamoylmethyl-amide] | 80.0 ± 5.3 μm | 39.7 ± 6.5 μm |  |  | almost the same | 59.6 ± 3.4 μm | 72.3 ± 4.0 μm | significantly increased | dose dependent increase | better than or equivalent to |  |  |  |  | significantly increased | 46.0 ± 5.0 μm | 74.3 ± 8.3 μm | 33.5 ± 5.9 μm | 51.7 ± 5.3 μm
4 | O=C(O)CCCC[C@@H]1CCSS1 (racemic) [Lipoic Acid, reference compound] |  |  |  |  |  | 63.8 ± 6.5 μm | 83.8 ± 7.4 μm |  |  |  |  |  |  |  |  |  |  |  | 
